Measured values published in patent US6355799B1, “Substituted benzene compounds, process for their preparation, and herbicidal and defoliant compositions containing them” (ISK Americas Incorporated, priority 1997, dated 2002).

Key:
Format in all cases: in vivo
[1] = system: redroot pigweed (Amaranthus retroflexus, AMARE); assay: Pre-emerge test, greenhouse herbicide activity screening; details: rating scale 0-100, 14 days after application
Procedure, shortened: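 Plants grown in 10 cm pots of sandy loam mix received acetone-dissolved compounds through a moving flat-fan nozzle. Doses ranged from 15 to 1000 g ai/ha. Pre-emerge pots were seeded one day earlier, post-emerge pots 8–21 days earlier. Fourteen days on, each pot was graded 0–100 for damage.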

[2] = system: field corn (Zea mays L., var. Dekalb 535, CORN); assay: Post-emerge test, crop safety; details: rating scale 0-100 (0 no damage, 100 complete death), 14 days after application
Procedure, shortened: (§1)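 Compounds in acetone were track-sprayed at 187 l/ha, 15–1000 g ai/ha, onto sandy loam pots. Pre-emerge seeds were sown one day before spraying, with surface watering afterwards. Post-emerge plants were at the 2–3 leaf stage and sprayed with 0.25% v/v non-ionic surfactant. Injury was rated 0–100 at 14 days.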

[3] = system: upland rice (Oryza sp., var. Tebonnet, RICE); assay: Post-emerge test, crop safety; details: rating scale 0-100 (0 no damage, 100 complete death), 14 days after application
Procedure, shortened: as §1

[4] = system: lambsquarters (Chenopodium album, CHEAL); assay: Pre-emerge test, greenhouse herbicide activity screening; details: rating scale 0-100, 14 days after application
Procedure, shortened: as §1

[5] = system: green foxtail (Setaria viridis, SETVI); assay: as above; details: rating scale 0-100, 14 days after application
Procedure, shortened: as §1

[6] = system: large crabgrass (Digitaria sanguinalis, DIGSA); assay: as above; details: rating scale 0-100, 14 days after application
Procedure, shortened: as §1

[7] = system: johnsongrass (Sorghum halepense, SORHA); assay: as above; details: rating scale 0-100, 14 days after application
Procedure, shortened: as §1

[8] = system: ivyleaf morningglory (Ipomoea hederacea, IPOHE); assay: as above; details: rating scale 0-100, 14 days after application
Procedure, shortened: as §1

[9] = system: sicklepod (Cassia obtusifolia, CASOB); assay: as above; details: rating scale 0-100, 14 days after application
Procedure, shortened: as §1

[10] = system: velvetleaf (Abutilon theophrasti, ABUTH); assay: as above; details: rating scale 0-100, 14 days after application
Procedure, shortened: as §1

[11] = system: barnyardgrass (Echinochloa crus-galli, ECHCG); assay: as above; details: rating scale 0-100, 14 days after application
Procedure, shortened: as §1

[12] = system: lambsquarters (Chenopodium album, CHEAL); assay: Post-emerge test, greenhouse herbicide activity screening; details: rating scale 0-100 (0 no damage, 100 complete death), 14 days after application
Procedure, shortened: (§2)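 Each test used a mechanized track sprayer delivering 187 l/ha of acetone solution at 15–1000 g ai/ha. Post-emerge foliage at 2–3 leaves was treated with added 0.25% v/v non-ionic surfactant and bottom-watered only. Injury was assessed on day 14, where 100 means total kill.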

[13] = system: green foxtail (Setaria viridis, SETVI); assay: as above; details: rating scale 0-100 (0 no damage, 100 complete death), 14 days after application
Procedure, shortened: as §2

[14] = system: large crabgrass (Digitaria sanguinalis, DIGSA); assay: as above; details: rating scale 0-100 (0 no damage, 100 complete death), 14 days after application
Procedure, shortened: as §2

[15] = system: redroot pigweed (Amaranthus retroflexus, AMARE); assay: as above; details: rating scale 0-100 (0 no damage, 100 complete death), 14 days after application
Procedure, shortened: as §2

[16] = system: johnsongrass (Sorghum halepense, SORHA); assay: as above; details: rating scale 0-100 (0 no damage, 100 complete death), 14 days after application
Procedure, shortened: as §2

[17] = system: ivyleaf morningglory (Ipomoea hederacea, IPOHE); assay: as above; details: rating scale 0-100 (0 no damage, 100 complete death), 14 days after application
Procedure, shortened: as §2

[18] = system: sicklepod (Cassia obtusifolia, CASOB); assay: as above; details: rating scale 0-100 (0 no damage, 100 complete death), 14 days after application
Procedure, shortened: as §2

[19] = system: velvetleaf (Abutilon theophrasti, ABUTH); assay: as above; details: rating scale 0-100 (0 no damage, 100 complete death), 14 days after application
Procedure, shortened: as §2

[20] = system: barnyardgrass (Echinochloa crus-galli, ECHCG); assay: as above; details: rating scale 0-100 (0 no damage, 100 complete death), 14 days after application
Procedure, shortened: as §2

[21] = system: field corn (Zea mays L., var. Dekalb 535, CORN); assay: Pre-emerge test, crop safety; details: rating scale 0-100, 14 days after application
Procedure, shortened: (§3)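 Fourteen days after spraying, crop and weed injury was graded visually from 0, no effect, to 100, every plant dead. Test substances were dissolved in acetone and applied at 15–1000 g ai/ha with a flat-fan nozzle. Application was either pre-emergence, one day after sowing, or post-emergence at the 2–3 leaf stage.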

[22] = system: upland rice (Oryza sp., var. Tebonnet, RICE); assay: Pre-emerge test, crop safety; details: rating scale 0-100, 14 days after application
Procedure, shortened: as §3

COc1c(Cl)cc(F)c(-n2c(=O)cc(C(F)(F)F)n(C)c2=O)c1CC(Cl)C(=O)OCC(Br)CBr (single isomer, unassigned) [14-31]
Pre-emerge herbicidal activity, phytotoxicity rating AMARE ([1]; 63 g ai/ha): 70
Pre-emerge herbicidal activity, phytotoxicity rating AMARE ([1]; 250 g ai/ha): 100
Post-emerge phytotoxicity rating CORN (crop damage) ([2]; Rate 63 g ai/ha): 10
Post-emerge phytotoxicity rating CORN (crop damage) ([2]; Rate 250 g ai/ha): 50
Post-emerge phytotoxicity rating RICE (crop damage) ([3]; Rate 63 g ai/ha): 0
Post-emerge phytotoxicity rating RICE (crop damage) ([3]; Rate 250 g ai/ha): 0
Pre-emerge herbicidal activity, phytotoxicity rating CHEAL ([4]; 63 g ai/ha): 40
Pre-emerge herbicidal activity, phytotoxicity rating CHEAL ([4]; 250 g ai/ha): 50
Pre-emerge herbicidal activity, phytotoxicity rating SETVI ([5]; 63 g ai/ha): 0
Pre-emerge herbicidal activity, phytotoxicity rating SETVI ([5]; 250 g ai/ha): 0
Pre-emerge herbicidal activity, phytotoxicity rating DIGSA ([6]; 63 g ai/ha): 0
Pre-emerge herbicidal activity, phytotoxicity rating DIGSA ([6]; 250 g ai/ha): 90
Pre-emerge herbicidal activity, phytotoxicity rating SORHA ([7]; 63 g ai/ha): 0
Pre-emerge herbicidal activity, phytotoxicity rating SORHA ([7]; 250 g ai/ha): 0
Pre-emerge herbicidal activity, phytotoxicity rating IPOHE ([8]; 63 g ai/ha): 0
Pre-emerge herbicidal activity, phytotoxicity rating IPOHE ([8]; 250 g ai/ha): 50
Pre-emerge herbicidal activity, phytotoxicity rating CASOB ([9]; 63 g ai/ha): 0
Pre-emerge herbicidal activity, phytotoxicity rating CASOB ([9]; 250 g ai/ha): 0
Pre-emerge herbicidal activity, phytotoxicity rating ABUTH ([10]; 63 g ai/ha): 0
Pre-emerge herbicidal activity, phytotoxicity rating ABUTH ([10]; 250 g ai/ha): 70
Pre-emerge herbicidal activity, phytotoxicity rating ECHCG ([11]; 63 g ai/ha): 0
Pre-emerge herbicidal activity, phytotoxicity rating ECHCG ([11]; 250 g ai/ha): 0
Post-emerge Herbicidal Activity, phytotoxicity rating CHEAL ([12]; Rate 63 g ai/ha): 70
Post-emerge Herbicidal Activity, phytotoxicity rating CHEAL ([12]; Rate 250 g ai/ha): 90
Post-emerge Herbicidal Activity, phytotoxicity rating SETVI ([13]; Rate 63 g ai/ha): 0
Post-emerge Herbicidal Activity, phytotoxicity rating SETVI ([13]; Rate 250 g ai/ha): 50
Post-emerge Herbicidal Activity, phytotoxicity rating DIGSA ([14]; Rate 63 g ai/ha): 95
Post-emerge Herbicidal Activity, phytotoxicity rating DIGSA ([14]; Rate 250 g ai/ha): 100
Post-emerge Herbicidal Activity, phytotoxicity rating AMARE ([15]; Rate 63 g ai/ha): 90
Post-emerge Herbicidal Activity, phytotoxicity rating AMARE ([15]; Rate 250 g ai/ha): 100
Post-emerge Herbicidal Activity, phytotoxicity rating SORHA ([16]; Rate 63 g ai/ha): 0
Post-emerge Herbicidal Activity, phytotoxicity rating SORHA ([16]; Rate 250 g ai/ha): 20
Post-emerge Herbicidal Activity, phytotoxicity rating IPOHE ([17]; Rate 63 g ai/ha): 10
Post-emerge Herbicidal Activity, phytotoxicity rating IPOHE ([17]; Rate 250 g ai/ha): 70
Post-emerge Herbicidal Activity, phytotoxicity rating CASOB ([18]; Rate 63 g ai/ha): 50
Post-emerge Herbicidal Activity, phytotoxicity rating CASOB ([18]; Rate 250 g ai/ha): 50
Post-emerge Herbicidal Activity, phytotoxicity rating ABUTH ([19]; Rate 63 g ai/ha): 90
Post-emerge Herbicidal Activity, phytotoxicity rating ABUTH ([19]; Rate 250 g ai/ha): 100
Post-emerge Herbicidal Activity, phytotoxicity rating ECHCG ([20]; Rate 63 g ai/ha): 100
Post-emerge Herbicidal Activity, phytotoxicity rating ECHCG ([20]; Rate 250 g ai/ha): 100
Pre-emerge phytotoxicity rating, crop damage CORN ([21]; 63 g ai/ha): 0
Pre-emerge phytotoxicity rating, crop damage CORN ([21]; 250 g ai/ha): 30
Pre-emerge phytotoxicity rating, crop damage RICE ([22]; 63 g ai/ha): 0
Pre-emerge phytotoxicity rating, crop damage RICE ([22]; 250 g ai/ha): 0
